# Test results reported in patent US9434725B2, “5-azaindazole compounds and methods of use” (priority 2012, dated 2016).
# pKi: −log10 of the molar value.
# What was measured:
# PIM2 = PIM2 (Homo sapiens (Human), UniProt Q9P1W9); test: Pim kinase binding activity, Caliper LC3000 microfluidic peptide phosphorylation assay, PIM2; format: biochemical; conditions: 10 μM ATP, 90 min, room temperature; read-out: PIM2 LC3K (KI)
# Procedure: (§1) A fluorescent-labeled Pim-specific peptide substrate, was custom synthesized by American Peptide Company (Sunnyvale, Calif.). Reaction Buffer contained 10 mM HEPES, pH 7.2, 10 mM MgCl2, 0.01% Tween 20, 2 mM DTT. Termination Buffer contained 190 mM HEPES, pH 7.2, 0.015% Brij-35, 0.2% Coating Reagent 3 (Caliper Life Sciences, Hopkinton, Mass.), 20 mM EDTA. Separation Buffer contained 100 mM HEPES, pH 7.2, 0.015% Brij-35, 0.1% Coating Reagent 3, 1:200 Coating Reagent 8 (Caliper Life Sciences, Hopkinton, Mass.), 10 mM EDTA and 5% DMSO.
# (§2) PIM reactions were carried out in a final volume of 10 μL per well in a 384-well plate. […] After 90 minutes of incubation at room temperature, the phosphorylation reaction was stopped by the addition of 10 μL Termination Buffer. The product and substrate in each independent reaction were separated on a 12-sipper microfluidic chip (Caliper Life Sciences, Hopkinton, Mass.) run on a Caliper LC3000® (Caliper Life Sciences, Hopkinton, Mass.). The separation of product and substrate was optimized by choosing voltages and pressure using Caliper's Optimizer software (Hopkinton, Mass.). […] Substrate conversion was calculated from the electropherogram using HTS Well Analyzer software (Caliper Life Sciences, Hopkinton, Mass.). Ki values for the test compound were calculated.
# PIM3 = PIM3 (Homo sapiens (Human), UniProt Q86V86); test: Pim kinase binding activity, Caliper LC3000 microfluidic peptide phosphorylation assay, PIM3; format: biochemical; conditions: 10 μM ATP, 90 min, room temperature; read-out: PIM3 LC3K (KI)
# Procedure: as §1, §2
# PIM2, sequence (Q9P1W9 whole entry): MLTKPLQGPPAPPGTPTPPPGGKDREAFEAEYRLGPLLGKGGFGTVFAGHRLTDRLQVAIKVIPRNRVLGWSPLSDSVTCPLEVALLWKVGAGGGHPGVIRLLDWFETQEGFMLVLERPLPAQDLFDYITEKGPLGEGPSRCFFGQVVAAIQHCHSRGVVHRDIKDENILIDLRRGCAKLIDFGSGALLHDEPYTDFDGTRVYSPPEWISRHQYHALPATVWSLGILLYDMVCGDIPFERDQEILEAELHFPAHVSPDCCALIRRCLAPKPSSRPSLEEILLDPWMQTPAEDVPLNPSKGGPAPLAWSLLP
pKi (PIM2),pKi (PIM3),SMILES
7.98,9.52,"CCc1cncc(-c2cc3c(cn2)cnn3-c2cccc(N3CCNC[C@H](O)C3)n2)c1 (single isomer, unassigned) [Compound 121]"
8.32,9.48,"Cc1cncc(-c2cc3c(cn2)cnn3-c2cccc(N3CCCC(N)C3C)n2)n1 (single isomer, unassigned) [Compound 203, 2-methyl-1-[6-[6-(6-methylpyrazin-2-yl)pyrazolo[4,3-c]pyridin-1-yl]-2-pyridyl]piperidin-3-amine]"
9.32,10.60,"Cc1cncc(-c2cc3c(cn2)cnn3-c2cccc(N3CCCC(N)C3C)n2)n1 (single isomer, unassigned) [Compound 204, 2-methyl-1-[6-[6-(6-methylpyrazin-2-yl)pyrazolo[4,3-c]pyridin-1-yl]-2-pyridyl]piperidin-3-amine]"
8.56,10.19,"CC(C)c1cncc(-c2cc3c(cn2)cnn3-c2cccc(N3CCCNCC3)n2)c1 [Compound 103, 1-(6-(1,4-diazepan-1-yl)pyridin-2-yl)-6-(5-isopropylpyridin-3-yl)-1H-pyrazolo[4,3-c]pyridine]"
8.15,9.74,"CC(C)c1cncc(-c2cc3c(cn2)cnn3-c2cccc(N3CCNCC3)n2)c1 [Compound 105, 6-(5-isopropylpyridin-3-yl)-1-(6-(piperazin-1-yl)pyridin-2-yl)-1H-pyrazolo[4,3-c]pyridine]"
8.14,,"CCc1cncc(-c2cc3c(cn2)cnn3-c2cccc(N3CCNCC(O)C3)n2)c1 (stereo not drawn) [Compound 106, 1-(6-(6-(5-ethylpyridin-3-yl)-1H-pyrazolo[4,3-c]pyridin-1-yl)pyridin-2-yl)-1,4-diazepan-6-ol]"
8.02,9.69,"CC(C)c1cncc(-c2cc3c(cn2)cnn3-c2cccc(N3CCC[C@@H](N)C3)n2)c1 [Compound 107, (R)-1-(6-(6-(5-isopropylpyridin-3-yl)-1H-pyrazolo[4,3-c]pyridin-1-yl)pyridin-2-yl)piperidin-3-amine]"
8.71,10.31,"CC(C)c1cncc(-c2cc3c(cn2)cnn3-c2cccc(N3CCC[C@H](N)C3)n2)c1 [Compound 108, (3S)-1-[6-[6-(5-isopropyl-3-pyridyl)pyrazolo[4,3-c]pyridin-1-yl]-2-pyridyl]piperidin-3-amine]"
8.33,9.77,"Cc1cc(-c2cc3c(cn2)cnn3-c2cccc(N3CCCNCC3)n2)sn1 [Compound 120, 5-[1-[6-(1 4-diazepan-1-yl)-2-pyridyl]pyrazolo[4,3-c]pyridin-6-yl]-3-methyl-isothiazole]"
8.37,,"CCn1cc(-c2cc3c(cn2)cnn3-c2cccc(N3CCCNCC3)n2)cn1 [Compound 125, 1-(6-(1,4-diazepan-1-yl)pyridin-2-yl)-6-(1-ethyl-1H-pyrazol-4-yl)-1H-pyrazolo[4,3-c]pyridine]"
9.73,10.46,"CCc1cncc(-c2cc3c(cn2)cnn3-c2ccc(C3CC3)c(N3CCC[C@H](N)C3)n2)c1 [Compound 139, (S)-1-(3-cyclopropyl-6-(6-(5-ethylpyridin-3-yl)-1H-pyrazolo[4,3-c]pyridin-1-yl)pyridin-2-yl)piperidin-3-amine]"
9.43,10.85,"CCc1cncc(-c2cc3c(cn2)cnn3-c2cccc(N3CCC[C@H](N)C3)n2)n1 [Compound 156, (3S)-1-[6-[6-(6-ethylpyrazin-2-yl)pyrazolo[4,3-c]pyridin-1-yl]-2-pyridyl]piperidin-3-amine]"
8.65,9.09,"FC(F)Cn1cc(-c2cc3c(cn2)cnn3-c2cccc(N3CCCNCC3)n2)cn1 [Compound 162, 1-(6-(1,4-Diazepan-1-yl)pyridin-2-yl)-6-(1-(2,2-difluoroethyl)-1H-pyrazol-4-yl)-1H-pyrazolo[4,3-c]pyridine]"
8.34,9.35,"Cc1cncc(-c2cc3c(cn2)cnn3-c2cccc(C3CCNCC3)n2)n1 [Compound 166, 6-(6-methylpyrazin-2-yl)-1-[6-(4-piperidyl)-2-pyridyl]pyrazolo[4,3-c]pyridine]"
8.64,9.47,"Cc1cncc(-c2cc3c(cn2)cnn3-c2cccc(N3CC[C@H](N)C3)n2)n1 [Compound 167, (3S)-1-[6-[6-(6-methylpyrazin-2-yl)pyrazolo[4,3-c]pyridin-1-yl]-2-pyridyl]pyrrolidin-3-amine]"
9.50,10.33,"Cc1cncc(-c2cc3c(cn2)cnn3-c2ccc(Cl)c(N3CCC[C@H](N)C3)n2)n1 [Compound 176, (S)-1-(3-chloro-6-(6-(6-methylpyrazin-2-yl)-1H-pyrazolo[4,3-c]pyridin-1-yl)pyridin-2-yl)piperidin-3-amine]"
,8.75,"FC(F)(F)Cn1cc(-c2cc3c(cn2)cnn3-c2ccnc(N3CCCNCC3)n2)cn1 [Compound 179, 1-(2-(1,4-Diazepan-1-yl)pyrimidin-4-yl)-6-(1-(2,2,2-trifluoroethyl)-1H-pyrazol-4-yl)-1H-pyrazolo-[4,3-c]pyridine]"
8.80,10.07,"c1cc(N2CCCNCC2)nc(-n2ncc3cnc(-c4cn[nH]c4)cc32)c1 [Compound 180, 1-(6-(1,4-Diazepan-1-yl)pyridin-2-yl)-6-(1H-pyrazol-4-yl)-1H-pyrazolo[4,3-c]pyridine]"
8.62,10.12,"Cc1cncc(-c2cc3c(cn2)cnn3-c2cccc(N3CCNC(C)CC3)n2)n1 (stereo not drawn) [Compound 184, 1-[6-(5-methyl-1 4-diazepan-1-yl)-2-pyridyl]-6-(6-methylpyrazin-2-yl)pyrazolo[4,3-c]pyridine]"
8.97,,"Cc1cncc(-c2cc3c(cn2)cnn3-c2cccc(N3CCCCC(N)C3)n2)n1 (stereo not drawn) [Compound 187, 1-[6-[6-(6-methylpyrazin-2-yl)pyrazolo[4,3-c]pyridin-1-yl]-2-pyridyl]azepan-3-amine]"
9.18,10.48,"Cc1cncc(-c2cc3c(cn2)cnn3-c2cccc(N3CCNC[C@H]3C)n2)n1 [Compound 191, 1-[6-[(2R)-2-methylpiperazin-1-yl]-2-pyridyl]-6-(6-methylpyrazin-2-yl)pyrazolo[4,3-c]pyridine]"
8.99,10.24,"Cc1cncc(-c2cc3c(cn2)cnn3-c2cccc(N3CCCC(N)C3C)n2)n1 (stereo not drawn) [Compound 195, 2-methyl-1-[6-[6-(6-methylpyrazin-2-yl)pyrazolo[4,3-c]pyridin-1-yl]-2-pyridyl]piperidin-3-amine]"
9.06,,"Cc1cncc(-c2cc3c(cn2)cnn3-c2cccc(N3CCNC[C@@H]3C)n2)n1 [Compound 196, 1-[6-[(2S)-2-methylpiperazin-1-yl]-2-pyridyl]-6-(6-methylpyrazin-2-yl)pyrazolo[4,3-c]pyridine]"
9.13,10.85,"Cc1nc(-c2cc3c(cn2)cnn3-c2cccc(N3CCCNCC3)n2)cnc1N [Compound 208, 5-(1-(6-(1,4-diazepan-1-yl)pyridin-2-yl)-1H-pyrazolo[4,3-c]pyridin-6-yl)-3-methylpyrazin-2-amine]"
9.50,10.96,"Cc1cncc(-c2cc3c(cn2)cnn3-c2ccc(F)c(N3CCC[C@H](N)C3)n2)n1 [Compound 215, (S)-1-(3-fluoro-6-(6-(6-methylpyrazin-2-yl)-1H-pyrazolo[4,3-c]pyridin-1-yl)pyridin-2-yl)piperidin-3-amine]"
9.94,11.05,"Cc1cncc(-c2cc3c(cn2)cnn3-c2ccc(C(F)(F)F)c(N3CCC[C@H](N)C3)n2)n1 [Compound 220, (S)-1-(6-(6-(6-methylpyrazin-2-yl)-1H-pyrazolo[4,3-c]pyridin-1-yl)-3-(trifluoromethyl)pyridin-2-yl)piperidin-3-amine]"
8.30,10.01,"Cn1cc(-c2cc3c(cn2)cnn3-c2cccc(N3CCCNCC3)n2)cn1 [Compound 224, 1-(6-(1,4-Diazepan-1-yl)pyridin-2-yl)-6-(1-methyl-1H-pyrazol-4-yl)-1H-pyrazolo[4,3-c]pyridine]"
,10.72,"Cc1cncc(-c2cc3c(cn2)cnn3-c2ccc(C(F)F)c(N3CCC[C@H](N)C3)n2)n1 [Compound 227, (S)-1-(3-(difluoromethyl)-6-(6-(6-methylpyrazin-2-yl)-1H-pyrazolo[4,3-c]pyridin-1-yl)pyridin-2-yl)piperidin-3-amine]"
6.00,,"Cc1cncc(-c2cc3c(cn2)cnn3-c2ccc(=O)n([C@H]3CCCNC3)n2)n1 [Compound 289, (S)-6-(6-(6-methylpyrazin-2-yl)-1H-pyrazolo[4,3-c]pyridin-1-yl)-2-(piperidin-3-yl)pyridazin-3(2H)-one]"
,9.25,"Cc1cncc(-c2cc3c(cn2)cnn3-c2cccc(N(C)C)n2)n1 [Compound 296, N,N-dimethyl-6-(6-(6-methylpyrazin-2-yl)-1H-pyrazolo[4,3-c]pyridin-1-yl)pyridin-2-amine]"

SMILES,pKi (PIM2),pKi (PIM3)
"CCn1cc(-c2cc3c(cn2)cnn3-c2cccc(N3CCNCC3)n2)cn1 [Compound 101, 6-(1-ethylpyrazol-4-yl)-1-(6-piperazin-1-yl-2-pyridyl)pyrazolo[4,3-c]pyridine]",7.84,9.17
